Reference: patent US9012617B2, “Detection reagents for tyrosine kinase activity and methods of use thereof” (The Trustees of The University of Pennsylvania, priority 2011, dated 2015)

Key:
EphA4 = biological target: T1, EphA4 (Homo sapiens, UniProt P54764); experiment: EphA4 kinetics imaging in HEK 293T cells transfected with GPhosEphA and EphA4; format: cell-based; conditions: Disassociation rate of EphA4 receptor after Genistien treatment (10 μm)
T1 construct: expressed in transfected cells; host or cells: HEK 293T
Method: (§1) Cells were imaged in ACSF on a spinning disk confocal (PerkinElmer) encased in a humidified temperature controlled incubator attached to a CCD-EM camera (Hamamatsu). Images were taken as a […] z-projection ([…] step size) every 20 seconds. After a 2 minute baseline, cells were treated and imaged with either DyLight 649 (Jackson Immunoresearch) labeled EphrinB2-FC or DyLight 649 labeled EphrinA1-FC (both at 500 ng/ml) for 15 minutes. Before continuing the experiment, bath was exchanged with fresh ASCF. Genistien (10 μm; Calbiochem) was added to previously imaged cells after a 2 minute baseline and imaged for an additional 15 minutes. Images were collected via Volocity software and analyzed using NIH ImageJ as detailed below.
(§2) Image analysis was conducted off-line using NIH ImageJ using both custom and standard macros. […] Ratio change was calculated as DF/F=(F−F0)/F0 (Yuste and Konnerth, 2005). Significance between conditions was determined by two-way ANOVA with Bonferroni post-hoc tests. Receptor “on” kinetics were calculated as one-phase association, and “off” kinetics were calculated as one-phase decay. All statistical measures were conducted using GraphPad Prism version 5.00 (GraphPad Software, San Diego, Calif.) on a per coverslip basis with several cells analyzed per coverslip from a minimum of three independent experiments. […]

EphB2 = biological target: T2, EphB2 (Homo sapiens, UniProt P29323); experiment: EphB2 kinetics imaging in HEK 293T cells transfected with GPhosEphB and EphB2; format: cell-based; conditions: Disassociation rate of EphB2 receptor after Genistien treatment (10 μm)
T2 construct: expressed in transfected cells; host or cells: HEK 293T
T2 sequence (P29323 19-1055): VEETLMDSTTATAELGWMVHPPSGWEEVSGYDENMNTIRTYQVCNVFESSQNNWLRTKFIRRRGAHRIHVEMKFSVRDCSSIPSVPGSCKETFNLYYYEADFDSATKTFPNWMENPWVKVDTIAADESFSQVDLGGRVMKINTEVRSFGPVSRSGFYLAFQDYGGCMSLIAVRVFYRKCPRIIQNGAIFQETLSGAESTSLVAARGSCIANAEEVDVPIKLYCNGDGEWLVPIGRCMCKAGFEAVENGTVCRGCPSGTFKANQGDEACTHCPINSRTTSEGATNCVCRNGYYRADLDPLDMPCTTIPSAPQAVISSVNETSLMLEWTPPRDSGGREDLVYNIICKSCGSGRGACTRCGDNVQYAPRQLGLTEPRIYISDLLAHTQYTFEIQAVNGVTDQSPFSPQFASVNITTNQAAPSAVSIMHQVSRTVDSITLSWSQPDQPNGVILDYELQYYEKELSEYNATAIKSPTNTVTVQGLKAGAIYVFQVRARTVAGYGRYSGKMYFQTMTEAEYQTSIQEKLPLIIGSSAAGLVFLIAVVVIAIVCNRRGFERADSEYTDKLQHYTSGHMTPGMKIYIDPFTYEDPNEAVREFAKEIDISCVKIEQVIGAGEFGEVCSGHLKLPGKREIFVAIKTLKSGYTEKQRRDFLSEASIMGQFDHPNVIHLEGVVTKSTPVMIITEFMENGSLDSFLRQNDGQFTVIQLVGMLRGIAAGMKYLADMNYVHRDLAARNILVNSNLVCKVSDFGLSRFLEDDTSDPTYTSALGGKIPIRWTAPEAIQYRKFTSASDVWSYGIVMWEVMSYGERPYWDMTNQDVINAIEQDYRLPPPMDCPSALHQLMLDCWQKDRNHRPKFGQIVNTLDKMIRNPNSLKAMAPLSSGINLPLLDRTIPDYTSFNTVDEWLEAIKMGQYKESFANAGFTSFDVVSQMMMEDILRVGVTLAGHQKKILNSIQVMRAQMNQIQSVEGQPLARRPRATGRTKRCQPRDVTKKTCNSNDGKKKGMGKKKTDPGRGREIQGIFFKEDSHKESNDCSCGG
Method: as §1, §2

T1 sequence (P54764 20-986, species assumed): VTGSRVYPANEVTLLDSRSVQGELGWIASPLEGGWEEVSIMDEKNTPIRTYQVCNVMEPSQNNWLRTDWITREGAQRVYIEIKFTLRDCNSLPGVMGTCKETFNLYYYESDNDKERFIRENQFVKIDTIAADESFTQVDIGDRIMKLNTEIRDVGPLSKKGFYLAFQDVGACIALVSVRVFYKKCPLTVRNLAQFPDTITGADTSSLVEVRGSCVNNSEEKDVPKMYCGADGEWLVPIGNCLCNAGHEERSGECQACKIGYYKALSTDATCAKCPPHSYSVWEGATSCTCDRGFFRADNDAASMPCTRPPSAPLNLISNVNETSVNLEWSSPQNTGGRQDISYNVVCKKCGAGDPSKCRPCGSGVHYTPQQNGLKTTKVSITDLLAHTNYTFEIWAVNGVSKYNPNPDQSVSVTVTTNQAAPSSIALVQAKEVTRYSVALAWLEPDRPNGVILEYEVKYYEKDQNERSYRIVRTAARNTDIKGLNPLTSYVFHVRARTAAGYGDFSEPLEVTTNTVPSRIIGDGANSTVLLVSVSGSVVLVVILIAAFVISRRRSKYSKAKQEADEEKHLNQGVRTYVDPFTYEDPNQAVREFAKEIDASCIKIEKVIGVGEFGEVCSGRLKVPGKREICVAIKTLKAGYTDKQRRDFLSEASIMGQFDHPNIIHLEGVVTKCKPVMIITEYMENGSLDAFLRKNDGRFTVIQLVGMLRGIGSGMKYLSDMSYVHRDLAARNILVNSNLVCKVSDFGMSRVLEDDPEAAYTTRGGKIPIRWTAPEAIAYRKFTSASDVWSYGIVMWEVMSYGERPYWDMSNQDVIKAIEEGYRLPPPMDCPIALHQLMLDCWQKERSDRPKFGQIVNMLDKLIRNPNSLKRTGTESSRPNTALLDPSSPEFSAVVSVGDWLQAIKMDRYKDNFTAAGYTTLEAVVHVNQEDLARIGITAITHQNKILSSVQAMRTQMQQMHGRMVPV

- One phase decay Tau (EphA4): 0.8484
- One phase decay Tau (EphB2): 1.588
SMILES: O=c1c(-c2ccc(O)cc2)coc2cc(O)cc(O)c12 [Genistein]
